Each structure is given as a SMILES string. Calls of active or inactive are those of the source. The rule behind the calls is not given here.

The test concerns the target Influenza A virus M2 proton channel (A/TW/4845/1999 H1N1). In words: M2 proton channel binding, NMR based, influenza A virus H1N1 strain (AID 1549). As to conditions: NMR binding screen, M2 protein.
For orientation: Kd means the equilibrium constant for the complex coming apart. Consider `CC(=O)O[C@H]1C[C@@H](OC(C)=O)C(C)(C)C2CC(=O)[C@]3(C)C(CC[C@@]4(C)[C@H](C(=O)O)OC(=O)C5OC543)[C@]21C` (some centres not stated), for which the Kd was > 4 mM (inactive).
Take `CCC(=O)NC(=S)Nc1ccc(C(N)=O)cc1`: the Kd is > 4 mM (inactive).
As for `Cc1cc(C(=O)c2c(C)nn(C)c2Cl)n(C)n1`, the Kd is > 4 mM (inactive).
On to `Cn1nnc2cc(CO)ccc21`, for which the Kd is > 4 mM (inactive).
`OCCOc1ccc(C2=NCCO2)cc1`: the Kd is > 4 mM (inactive).
For the molecule `CC1=NN2C(=N)/C(=C\c3cccs3)C(=O)N=C2S1`, the Kd was > 4 mM (inactive).
In the case of `OC(CCl)c1ccc(-n2cncn2)cc1` (configuration not stated), the Kd is > 4 mM (inactive).
For `CC[C@]12CCCN3CCc4c(n(c5ccccc45)[C@](O)(C(=O)OC)C1)[C@@H]32`, the Kd is > 4 mM (inactive).
In the case of `NCCCCNCCCN`, the Kd was > 4 mM (inactive).
Turning to `CC1(C)CC2C1CC[C@]1(C)CCC3C(C(=O)O)CC(=O)O[C@@]32C1` (some centres not stated), the Kd was > 4 mM (inactive).
`Cn1nnc2cc(C(=O)N3CCSCC3)ccc21`: the Kd is > 4 mM (inactive).
As for `CCSc1nc(C)c(CC)c(C)c1C(N)=O`, the Kd was > 4 mM (inactive).
On to `CS(=O)(=O)Cc1ccccc1`, for which the Kd was > 4 mM (inactive).
Then `O=C(O)C1CCN(S(=O)(=O)c2cccs2)CC1`, with > 4 mM (inactive); and `CCC(=O)Nc1cccc(NC(C)=O)c1`, with > 4 mM (inactive); and `N/C(=N/O)C1COc2ccccc2O1` (configuration not stated), with > 4 mM (inactive).
As for `O=S(=O)(NCc1ccco1)c1cccc2cccnc12`, the Kd was > 4 mM (inactive).
As for `Cc1nnc(Nc2cccnc2)[nH]c1=O`, the Kd was > 4 mM (inactive).
Take `CNC(=O)c1cc(C)c(-c2ccccc2)s1`: the Kd is > 4 mM (inactive).
`O=C(O)c1ccc2nsnc2c1`: the Kd was > 4 mM (inactive).
With `CC[C@H]1CN2CCC1C[C@@H]2[C@@H](O)c1ccnc2ccc(OC)cc12` (some centres not stated), the Kd was > 4 mM (inactive).
Then `O=C(O)C1CSC2(CCCCC2)N1` (configuration not stated), with > 4 mM (inactive).
Consider `COc1nc(C#N)c(N2CCOCC2)o1`, for which the Kd was > 4 mM (inactive).
Regarding `C=CC(C1=CC(=O)C(OC)=CC1=O)c1ccccc1` (configuration not stated), the Kd was > 4 mM (inactive).
Turning to `CC(C)c1c(O)ccc2c1CCC1[C@@](C)(C=O)CCC[C@]21C` (some centres not stated), the Kd was > 4 mM (inactive).
In the case of `CCOC(=O)c1c(C)nc2ccccn12`, the Kd is > 4 mM (inactive).
Then `O=C1CC(N2CCC(O)CC2)C(=O)N1c1ccc(F)cc1` (configuration not stated), with > 4 mM (inactive); and `COc1ccc2c(c1)OC1(O)COc3cc(OC)c(OC)cc3C1=C2` (configuration not stated), with > 4 mM (inactive).
Turning to `COc1cc(C)c(S(=O)(=O)N2CCN(C)CC2)cc1C`, the Kd was > 4 mM (inactive).
As for `O=[N+]([O-])c1cccc(-c2nnco2)c1`, the Kd was > 4 mM (inactive).
As to `Cc1[nH]c2ccccc2c1Cc1n[nH]c(=S)n1C`, the Kd is > 4 mM (inactive).
With `Cc1nc(CC(=O)O)c(-c2ccccc2)s1`, the Kd is > 4 mM (inactive).
Turning to `CC(=O)OC(C)(C)[C@@H]1Cc2cc3ccc(=O)oc3cc2O1`, the Kd was > 4 mM (inactive).
`O=C1CCCC(=O)N1Cc1ccco1`: the Kd is > 4 mM (inactive).
As to `Cc1ncc(CC(=O)O)s1`, the Kd is > 4 mM (inactive).
Take `CN1CC(=O)N=C1N`: the Kd was > 4 mM (inactive).
Then `Cn1ncc2c(=O)n(CC(=O)c3ccccc3)cnc21`, with > 4 mM (inactive).
For the molecule `CC(=O)CC1(O)C(=O)Nc2ccccc21` (configuration not stated), the Kd was > 4 mM (inactive).
Take `Cc1cc2ncn(S(=O)(=O)N3CCOCC3)c2cc1C`: the Kd is > 4 mM (inactive).
For `CN(C(=O)c1cc2cccnc2n(C)c1=O)c1ccccc1`, the Kd is > 4 mM (inactive).
On to `CC(C)(C)C(=O)Nc1nnc(SCC(N)=O)s1`, for which the Kd was > 4 mM (inactive).
With `CC[C@H](/C=C/C(C)C1CCC2C3CCC4=CC(=O)CC[C@]4(C)C3CC[C@]12C)C(C)C` (some centres not stated), the Kd was > 4 mM (inactive).
As to `Cn1nc(-c2ccccc2)cc1N`, the Kd is > 4 mM (inactive).
As for `CC(=O)N/N=C(\C)c1cccc(N)c1`, the Kd is > 4 mM (inactive).
The same measure for `Cc1[nH]c2ccccc2c1CN(C)C`: > 4 mM (inactive); for `Nc1ccc(Cl)nn1`: > 4 mM (inactive).
For the molecule `OCc1ccncc1`, the Kd is > 4 mM (inactive).
With `Cc1cc(NC(=O)c2ccc3c(c2)OCO3)no1`, the Kd was > 4 mM (inactive).
For the molecule `CC(=O)c1cnc(Nc2nc(C)c3ccccc3n2)nc1C`, the Kd is > 4 mM (inactive).
For `CC(=O)n1c(N)nc2ccccc21`, the Kd is > 4 mM (inactive).
Consider `COc1cc(C)c2c(c1C=O)Oc1c(c(C)c(O)c3c1C(O)OC3=O)OC2=O` (configuration not stated), for which the Kd was > 4 mM (inactive).
With `O=C(O)c1csc(-c2cccs2)n1`, the Kd is > 4 mM (inactive).
As for `O=C(NCc1cccc(Cl)c1)c1cccnc1`, the Kd was > 4 mM (inactive).
Then `CC(C)=NNC(=O)c1ccccc1`, with > 4 mM (inactive).
Consider `Cc1nc2ccc(C(=O)O)cc2[nH]1`, for which the Kd is > 4 mM (inactive).
As for `COc1ccc2cc1Oc1ccc(cc1)C[C@H]1c3cc(c(OC)cc3CCN1C)Oc1c(OC)c(OC)cc3c1[C@H](C2)N(C)CC3`, the Kd is > 4 mM (inactive).
The same measure for `COc1ccc(NS(=O)(=O)c2ccc(N)cc2)nn1`: > 4 mM (inactive); for `Cc1nnsc1C(=O)N(C)c1ccccc1`: > 4 mM (inactive).
For `O=S1(=O)C=CC(N2CCCCC2)C1` (configuration not stated), the Kd was > 4 mM (inactive).
`c1ccc(-n2cnnc2)nc1`: the Kd was > 4 mM (inactive).
For the molecule `C=C1C([C@]2(C)C(CC(=O)OC)[C@@](C)(COC(C)=O)OC(=O)C[C@@H]2OC(C)=O)[C@@H](OC=O)[C@H](OC(=O)C(OC(C)=O)C(C)CC)[C@@]2(C)[C@H](c3ccoc3)CC(=O)C12O` (some centres not stated), the Kd was > 4 mM (inactive).
In the case of `Cc1cc(C)c(C(N)=O)c(=S)[nH]1`, the Kd was > 4 mM (inactive).
Turning to `O=C1C2C3C=CC(C3)C2C(=O)N1CCO` (configuration not stated), the Kd was > 4 mM (inactive).
On to `O=C(N1CCOCC1)N1CCN(c2ccccn2)CC1`, for which the Kd was > 4 mM (inactive).
Regarding `COc1ccc(C(=O)NC2=NCCS2)cc1OC`, the Kd is > 4 mM (inactive).
Consider `Cc1[nH]c(=O)[nH]c(=O)c1N1CCOCC1`, for which the Kd is > 4 mM (inactive).
For `COC(=O)c1c(OC)cc2c(c1C)Oc1c(Cl)c(OC(C)=O)c(Cl)c(C)c1C(=O)O2`, the Kd was > 4 mM (inactive).
On to `Cc1nnc(NCc2ccc3c(c2)OCO3)[nH]c1=O`, for which the Kd was > 4 mM (inactive).
Turning to `COc1ccc2c(c1OC)C(=O)O[C@H]2[C@H]1c2cc3c(cc2CCN1C)OCO3`, the Kd is > 4 mM (inactive).
In the case of `COC(=O)Nc1nc2c(C)cccc2s1`, the Kd is > 4 mM (inactive).
On to `CC(=O)Oc1ccc2c(c1OC(C)=O)OCC1(O)Cc3c(cc(OC(C)=O)c(OC(C)=O)c3OC(C)=O)C21` (configuration not stated), for which the Kd is > 4 mM (inactive).
In the case of `NC(=O)COc1ccccc1O`, the Kd was > 4 mM (inactive).
In the case of `N[C@@H](C(=O)O)[C@@H](O)[C@H](O)[C@H](O)CO`, the Kd is > 4 mM (inactive).
The same measure for `C=CCc1ccc2c(c1)OCO2`: > 4 mM (inactive); for `Nc1nc2ccc(S(N)(=O)=O)cc2s1`: > 4 mM (inactive); for `O=C(NC(=S)NCc1cccnc1)c1ccco1`: > 4 mM (inactive).
Regarding `COc1cc(OC)c(OC)cc1C=O`, the Kd was > 4 mM (inactive).
Turning to `COC(=O)[C@@H]1C(O)CC[C@H]2CN3CCc4c([nH]c5ccccc45)[C@@H]3C[C@@H]21` (some centres not stated), the Kd was > 4 mM (inactive).
`O=C(O)C1=C[C@@H](O)[C@@H](O)[C@H](O)C1`: the Kd was > 4 mM (inactive).
As for `N=C1/C(=C\c2ccccc2)C(=O)N=C2SC=NN12`, the Kd was > 4 mM (inactive).
For `Cc1occc1C(=O)Nc1sccc1C(N)=O`, the Kd is > 4 mM (inactive).
In the case of `O=c1cc(CO)oc(CN2CCCCC2)c1O`, the Kd was > 4 mM (inactive).
As to `COc1ccc(-c2ccc(=O)n(CC(N)=O)n2)cc1`, the Kd is > 4 mM (inactive).
Regarding `CC(=O)Oc1c2c(c3c(c1CC=C(C)C)O[C@]14C(=C[C@@H]5CC1C(C)(C)OC4(C/C=C(\C)C(=O)O)C5=O)C3=O)OC(C)(CCC=C(C)C)C=C2` (some centres not stated), the Kd was > 4 mM (inactive).
With `Cn1c(NCc2ccco2)nc2ccccc21`, the Kd was > 4 mM (inactive).
For `CC(=O)Nc1c(C#N)c(C(C)(C)C)cn1C`, the Kd is > 4 mM (inactive).
The same measure for `CCOC(=O)c1ccc(F)c(F)c1`: > 4 mM (inactive).
For `COC(=O)CC1SC(=O)NC1=O` (configuration not stated), the Kd is > 4 mM (inactive).
Turning to `CC(=O)Nc1ccc(S(=O)(=O)N2CCN=C2C)cc1`, the Kd is > 4 mM (inactive).
On to `NCc1ccc(-n2cccn2)cc1`, for which the Kd was > 4 mM (inactive).
`O=C1CSC(=O)N1CN1CCOCC1`: the Kd was > 4 mM (inactive).
For the molecule `CC(=O)NC(=S)Nc1ccccc1N1CCOCC1`, the Kd is > 4 mM (inactive).
With `c1cncc(Nc2nc(-c3ccncc3)cs2)c1`, the Kd is > 4 mM (inactive).
Regarding `NCc1cccc2nsnc12`, the Kd was > 4 mM (inactive).
In the case of `Oc1cccc2[nH]ccc12`, the Kd was > 4 mM (inactive).
The same measure for `c1ccc2c(NC3=NCCS3)cccc2c1`: > 4 mM (inactive); for `CCCCN1C(=O)C2CC/C(=N/O)CC2C1=O` (configuration not stated): > 4 mM (inactive); for `CCCCCCCCCCCC[C@H](C(=O)O)[C@@H](C)C(=O)O`: > 4 mM (inactive).
The same measure for `Cc1cc[n+](-c2nc([O-])sc2C=O)cc1`: > 4 mM (inactive); for `COc1c2ccoc2cc2oc(C)cc(=O)c12`: > 4 mM (inactive).
In the case of `O=C1C2CC=CCC2C(=O)N1c1ccccc1` (configuration not stated), the Kd is > 4 mM (inactive).
Regarding `Oc1ccc2nonc2c1`, the Kd was > 4 mM (inactive).
